Key:
[1] = tested on: MDA-MB-468 cells compared to MCF7 cells; assay: Cy5p53Tet cellular uptake by live cell imaging (confocal, Nikon Element quantification); format: cell-based, Human; settings: 500 nM, 2 h incubation; Nikon Element analysis
Description: Hoechst staining (blue) was used to stain the nuclei. Two independent experiments with biological replicates were performed.
FIG. 1D is a graph showing quantification of Cy5p53Tet uptake in MCF7 and MDA-MB-468 cells via Nikon Element analysis. At least 200 cells per sample were measured by fluorescence microscopy.
In vitro uptake, specificity, and toxicity assays were performed to gauge the potential of mtp53ODPs as imaging agents. Live cell imaging was performed to compare the ability of Cy5p53Tet to stain ER+MCF7 breast cancer cells that express wtp53 and MDA-MB-468 TNBC cells which express stable missense mtp53 R273H. Cy5p53Tet was anticipated to detect both wtp53 and mtp53, but because of the higher stability of mtp53, MDA-MB-468 cells were predicted to have a higher signal. The intensity of the Cy5p53Tet signal was clearly higher in the MDA-MB-468 cells compared to the MCF7 cells (FIG. 1B), a difference that correlated to the level of p53 expression as determined by Western blot (FIG. 1C). […] However, after a 2 h incubation with Cy5p53Tet, the colocalization was clearly evident with the Hoechst-stained DNA (Supplemental Illustration S3 in U.S. Provisional application 63/186,409).
Cy5p53Tet Cellular Uptake by Live Cell Imaging. Cells were seeded at 2×10^5 per well in a 12-well glass bottom plate 1 day before imaging (MatTek). […]

MDA-MB-468.shp53 cells = assay: Cy5p53Tet uptake in MDA-MB-468 shp53 cells with or without mtp53 depletion (live cell imaging); format: cell-based, Human; settings: 500 nM
mtp53 R273H = mtp53 R273H (Homo sapiens, UniProt P04637, R273H); assay: Co-immunoprecipitation assay with purified mtp53 R273H; format: binding; settings: anti-p53 antibody sample; molar ratio 1:1; not by normal IgG
Description: Anti-p53 DO1 antibody-coupled magnetic beads were used to pull down Cy5p53Tet/mtp53 complex, and normal mouse IgG-coupled magnetic beads were used as a control.
To experimentally determine if Cy5p53Tet binds to mtp53 R273H, a co-immunoprecipitation assay was performed using purified mtp53 mixed with Cy5p53Tet in a molar ratio of 1:1 (FIG. 3C). The co-immunoprecipitation was carried out using anti-p53 antibody or nonspecific IgG.
Co-immunoprecipitation Assay. Magnetic beads were used for co-immunoprecipitation assays, and 50 μL of the bead suspension was placed in each sample. The beads were washed twice with 1×PBS-0.1% Tween-20 by vortexing for 10 s. The beads were resuspended in 1×PBS-0.1% Tween-20 with either 1 μg of anti-p53 DO1 antibody or 1 μg of normal mouse IgG at a final volume of 100 μL. The tubes were incubated at room temperature for 10 min with continuous mixing. The beads were washed three times with 1×PBS-0.1% Tween-20, and 1 μg of purified mtp53 R273H and 100 ng of Cy5p53Tet peptide were incubated with the immobilized antibody at 4° C. for 150 min with constant rotation. Beads were pelleted and then washed with 1 mL 1×PBS-0.1% Tween-20 four times at room temperature. Bound proteins were eluted by incubating in 2×SDS Laemmli sample buffer containing 0.2 M DTT, heated at 95° C. for 10 min, and loaded on 15 or 10% polyacrylamide gel.

[2] = tested on: MCF7 and MDA-MB-468 xenografts; assay: NIRF imaging of Cy5p53Tet in mice bearing bilateral MCF7/MDA-MB-468 xenografts (in vivo and ex vivo epifluorescence); settings: in vivo, after intravenous administration, 10 nmol
Description: At 40, 80, and 180 min after injection, mice were sacrificed, and the xenografts were resected and imaged ex vivo (FIG. 2C).
NIRF Imaging of Cy5p53Tet in Mice Bearing Bilateral MCF7/MDA-MB-468 Xenografts. Female athymic nude mice (6-10 weeks old, 01B74-Athymic NCr-nu/nu;) were obtained from Charles River Laboratories. Animals were supplemented with 17β-estradiol with a dose of 0.72 mg/pellet (60-day release) into the neck 7 days before MCF7 cells were subcutaneous implanted. 5×10^6 cells/mouse MCF7 cells were suspended in 100 μL of 1:1 media/matrigel basement membrane matrix (Corning) and injected subcutaneously on the left flank of each mouse (n≥3/group). After 4 weeks, 5×10^6 cells/mouse MDA-MB-468 cells were subcutaneously implanted in the right flank of the mouse in 100 μL of 1:1 media/matrigel basement membrane matrix. Imaging experiments were performed when the tumors reached a volume of ˜50-250 mm^3 (after approximately 3 weeks). Cy5p53Tet (10 nmol) was injected into the tail vein of each mouse. Prior to in vivo imaging, the mice were anesthetized with 1.5-2.0% isoflurane (Baxter Healthcare). Images were collected using an IVIS Spectrum (Perkin Elmer) 12 min, 30 min, and 3 h following the administration of Cy5p53Tet. […] Fluorescence imaging was carried out with excitation and emission wavelengths of 640 and 680 nm, respectively. […]

mtp53 = target: T1, mtp53 (Homo sapiens, UniProt P04637, R273H); assay: Glutaraldehyde cross-link assay in MDA-MB-468 cell lysates; format: binding; settings: in the presence of glutaraldehyde; cells treated 1.5 μM, 4 h; Cy5 channel
T1 construct: endogenous in cells; host or cells: MDA-MB-468
Text: FIG. 4D illustrates Cy5p53Tet treated with glutaraldehyde without MDA-MB-468 cell lysate.
Wtp53 can form a tetramer, and its oligomerization regulates its transcriptional activity. Tetramerization is important for both wtp53 and mtp53, as both are preferentially degraded by MDM2 when present as dimers rather than tetramers. The oligomerization states of mtp53 were examined and the interactions were investigated by Cy5p53Tet and mtp53 using glutaraldehyde (GA) cross-linking assays (FIG. 4A to FIG. 4D). MDA-MB-468 cells were treated with vehicle or 1.5 μM of Cy5p53Tet for 4 h. Whole-cell lysates were cross-linked with glutaraldehyde concentrations of 0, 0.0025, or 0.005%, and the samples were analyzed by Western blot to detect p53 oligomerization forms (FIG. 4A). In cells without glutaraldehyde, monomers of mtp53 were detected; at 0.0025% glutaraldehyde, monomers, dimers, and tetramers were visible; and at 0.005% glutaraldehyde, the predominant form was tetramers. The presence of Cy5p53Tet-containing mtp53 polypeptides was evaluated using the Cy5 channel (FIG. 4B). Cy5p53Tet was detected at a low molecular weight: <12 kDa in the absence of glutaraldehyde (FIG. 4B, lane 4). […] As a control, the glutaraldehyde cross-linking of Cy5p53Tet was examined without mtp53 and found no such signal (FIG. 4D). […]

H-CysCy5-RKKRRQRRGEYFTLQIRGRERFEMFRELNEALELK-OH (N-terminal Cy5; Synthetic peptide based on p53 protein) [Cy5p53Tet]
uptake of the mtp53ODP in MDA-MB-468 cells compared to MCF7 cells [1]: twofold higher
reduction of the Cy5p53Tet signal upon mtp53 depletion (relative ROI intensity) (MDA-MB-468.shp53 cells; 30 min): 61%
reduction of the Cy5p53Tet signal upon mtp53 depletion (relative ROI intensity) (MDA-MB-468.shp53 cells; 2 h): 63%
reduction of the Cy5p53Tet signal upon mtp53 depletion (relative ROI intensity) (MDA-MB-468.shp53 cells; 4 h): 67%
difference of Cy5p53Tet signal between knockdown and control cells (MDA-MB-468.shp53 cells; 24 h): no statistically significant difference
pull-down of Cy5p53Tet with mtp53 R273H (mtp53 R273H): significantly pulled down
NIRF signal in MCF7 tumors [2]: no signal
NIRF signal in MDA-MB-468 tumors [2]: clearly observed
molecular weight at which Cy5p53Tet was observed (mtp53): > 225 kDa
